Measured values from the NIST ThermoML archive (doi:10.1021/je5001457).
± gives the expanded uncertainty stated by the source.

Settings: for kinematic viscosity: Liquid
[1] = 302.99 K, surface light scattering
[2] = 312.86 K, surface light scattering
[3] = 322.92 K, surface light scattering
[4] = 332.92 K, surface light scattering
[5] = 342.9 K, surface light scattering
[6] = 352.89 K, surface light scattering
[7] = 363.27 K, surface light scattering
[8] = 368.26 K, surface light scattering
[9] = 295.23 K, surface light scattering
[10] = 303.19 K, surface light scattering
[11] = 313.21 K, surface light scattering
[12] = 323.19 K, surface light scattering
[13] = 333 K, surface light scattering
[14] = 343.05 K, surface light scattering
[15] = 353 K, surface light scattering
[16] = 363.12 K, surface light scattering
[17] = 373.14 K, surface light scattering

FCC(F)(F)F [1,1,1,2-tetrafluoroethane]
surface tension liquid-gas [1]: 7.45 ± 0.23 mN/m
kinematic viscosity [1]: 1.55e-07 ± 6.2e-09 m2/s
surface tension liquid-gas [2]: 6.19 ± 0.19 mN/m
kinematic viscosity [2]: 1.41e-07 ± 5.6e-09 m2/s
surface tension liquid-gas [3]: 4.95 ± 0.15 mN/m
kinematic viscosity [3]: 1.28e-07 ± 5.1e-09 m2/s
surface tension liquid-gas [4]: 3.79 ± 0.12 mN/m
kinematic viscosity [4]: 1.17e-07 ± 4.7e-09 m2/s
surface tension liquid-gas [5]: 2.68 ± 0.08 mN/m
kinematic viscosity [5]: 1.07e-07 ± 4.3e-09 m2/s
surface tension liquid-gas [6]: 1.65 ± 0.05 mN/m
kinematic viscosity [6]: 9.79e-08 ± 3.9e-09 m2/s
surface tension liquid-gas [7]: 0.73 ± 0.03 mN/m
kinematic viscosity [7]: 8.56e-08 ± 3.4e-09 m2/s
surface tension liquid-gas [8]: 0.34 ± 0.02 mN/m
kinematic viscosity [8]: 7.9e-08 ± 3.2e-09 m2/s

C=C(F)C(F)(F)F [2,3,3,3-tetrafluoro-1-propene]
surface tension liquid-gas (293.15 K, light scattering): 6.82 ± 0.21 mN/m
kinematic viscosity (293.15 K, light scattering): 1.44e-07 ± 5.8e-09 m2/s
surface tension liquid-gas (303.09 K, light scattering): 5.71 ± 0.17 mN/m
kinematic viscosity (303.09 K, light scattering): 1.32e-07 ± 5.3e-09 m2/s
surface tension liquid-gas (313.2 K, light scattering): 4.6 ± 0.14 mN/m
kinematic viscosity (313.2 K, light scattering): 1.22e-07 ± 4.9e-09 m2/s
surface tension liquid-gas (323.19 K, light scattering): 3.55 ± 0.11 mN/m
kinematic viscosity (323.19 K, light scattering): 1.13e-07 ± 4.5e-09 m2/s
surface tension liquid-gas (333.14 K, light scattering): 2.55 ± 0.08 mN/m
kinematic viscosity (333.14 K, light scattering): 1.02e-07 ± 4.1e-09 m2/s
surface tension liquid-gas (343.11 K, light scattering): 1.64 ± 0.05 mN/m
kinematic viscosity (343.11 K, light scattering): 8.99e-08 ± 3.6e-09 m2/s
surface tension liquid-gas (353.08 K, light scattering): 0.81 ± 0.03 mN/m
kinematic viscosity (353.08 K, light scattering): 8.2e-08 ± 3.3e-09 m2/s
surface tension liquid-gas (358.05 K, light scattering): 0.46 ± 0.02 mN/m
kinematic viscosity (358.05 K, light scattering): 7.7e-08 ± 3.1e-09 m2/s
surface tension liquid-gas (363.05 K, light scattering): 0.15 ± 0.01 mN/m
kinematic viscosity (363.05 K, light scattering): 7e-08 ± 2.8e-09 m2/s
kinematic viscosity (365.05 K, light scattering): 6.24e-08 ± 2.6e-09 m2/s

F/C=C/C(F)(F)F [trans-1,3,3,3-tetrafluoropropene]
surface tension liquid-gas [9]: 8.88 ± 0.27 mN/m
kinematic viscosity [9]: 1.78e-07 ± 7.1e-09 m2/s
surface tension liquid-gas [10]: 7.91 ± 0.24 mN/m
kinematic viscosity [10]: 1.61e-07 ± 6.4e-09 m2/s
surface tension liquid-gas [11]: 6.66 ± 0.2 mN/m
kinematic viscosity [11]: 1.43e-07 ± 5.7e-09 m2/s
surface tension liquid-gas [12]: 5.48 ± 0.17 mN/m
kinematic viscosity [12]: 1.32e-07 ± 5.3e-09 m2/s
surface tension liquid-gas [13]: 4.36 ± 0.13 mN/m
kinematic viscosity [13]: 1.19e-07 ± 4.8e-09 m2/s
surface tension liquid-gas [14]: 3.3 ± 0.1 mN/m
kinematic viscosity [14]: 1.13e-07 ± 4.5e-09 m2/s
surface tension liquid-gas [15]: 2.26 ± 0.07 mN/m
kinematic viscosity [15]: 1.05e-07 ± 4.2e-09 m2/s
surface tension liquid-gas [16]: 1.35 ± 0.04 mN/m
kinematic viscosity [16]: 9.24e-08 ± 3.7e-09 m2/s
surface tension liquid-gas [17]: 0.54 ± 0.02 mN/m
kinematic viscosity [17]: 8.17e-08 ± 3.3e-09 m2/s
